The values below come from US20230078764A1 (Yumanity Therapeutics, Inc., priority 2019, published 2023).

Molecules are shown by their SMILES. Like-named read-outs stand apart in the source and are kept apart here.

What is called IC50 is the concentration that inhibits the measured activity by half.

The target of one assay is T1, human SCD1 (Homo sapiens, UniProt O00767).
T1 construct: expressed in transfected cells; host or cells: yeast strain with OLE1 deleted, plasmid-borne human SCD1 (selected in SD-Ura)
T1 sequence (O00767 1-359): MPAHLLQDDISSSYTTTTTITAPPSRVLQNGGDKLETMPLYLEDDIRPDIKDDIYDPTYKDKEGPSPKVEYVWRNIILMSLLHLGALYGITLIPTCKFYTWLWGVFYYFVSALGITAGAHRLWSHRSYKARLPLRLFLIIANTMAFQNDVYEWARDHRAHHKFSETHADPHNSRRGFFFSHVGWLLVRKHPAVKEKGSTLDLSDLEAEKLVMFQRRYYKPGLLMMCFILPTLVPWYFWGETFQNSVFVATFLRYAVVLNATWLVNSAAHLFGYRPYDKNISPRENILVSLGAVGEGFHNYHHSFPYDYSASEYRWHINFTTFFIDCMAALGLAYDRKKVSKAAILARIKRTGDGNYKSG
Kind of assay: Growth inhibition of yeast strain expressing human SCD1 as sole desaturase (OLE1 deleted), OD600 readout. Format: cell-based.

For a further assay, the target named is T2, human SCD5 (Homo sapiens, UniProt Q86SK9).
T2 construct: expressed in transfected cells; host or cells: yeast strain with OLE1 deleted, plasmid-borne human SCD5 (selected in SD-Ura)
T2 sequence (Q86SK9 1-330): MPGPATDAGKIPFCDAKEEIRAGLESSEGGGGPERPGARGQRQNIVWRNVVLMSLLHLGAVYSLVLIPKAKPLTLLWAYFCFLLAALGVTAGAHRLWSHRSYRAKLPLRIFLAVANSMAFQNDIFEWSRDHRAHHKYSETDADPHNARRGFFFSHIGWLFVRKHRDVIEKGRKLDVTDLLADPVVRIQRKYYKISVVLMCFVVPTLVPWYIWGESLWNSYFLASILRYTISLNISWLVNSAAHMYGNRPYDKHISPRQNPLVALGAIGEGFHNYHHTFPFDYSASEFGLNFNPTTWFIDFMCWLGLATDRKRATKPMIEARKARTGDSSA
The assay can be described thus: Growth inhibition of yeast strain expressing human SCD5 as sole desaturase (OLE1 deleted), OD600 readout. Format: cell-based.

The mark [1] stands for this setting: yeast strain expressing human SCD1 as sole desaturase, growth (OD600) after 40 h at 30° C., read-out: SCD1 IC50.
The mark [2] stands for this setting: yeast strain expressing human SCD5 as sole desaturase, growth (OD600) after 40 h at 30° C., read-out: SCD5 IC50.

For `O=C(Nc1ccc(Cc2cc(F)cc(F)c2)cn1)c1cnnc(Cl)c1` [Compound 657], the IC50 on human SCD1 (setting [1]) and at human SCD5 (setting [2]) was 10 nM throughout.
In the case of `O=C(Nc1ccc(Cc2cccc(F)c2)cn1)c1ncc(Cl)cc1F` [Compound 611], the IC50 at human SCD1 (setting [1]) was above 45000 nM; on human SCD5 (setting [2]) it was 371 nM.
Taken in the same sequence, the figures for `CN(Cc1ccc(C(=O)Nc2ccc(Cc3cccc(Cl)c3)cn2)cn1)C(=O)OC(C)(C)C` [Compound 348] were 7370 nM and 4960 nM.
For `N#Cc1ccc(C(=O)Nc2ccc(Cc3ccc(F)c(F)c3)cn2)nn1` [Compound 576], the results for the half-inhibitory concentration (IC50) on human SCD1 (setting [1]) and at human SCD5 (setting [2]) were above 45000 nM and 400 nM, respectively.
Taken in the same sequence, the figures for `CN1N=C(C(=O)Nc2ccc(Cc3ccccc3)nn2)CCC1=O` [Compound 186, N-(6-benzylpyridazin-3-yl)-1-methyl-6-oxo-1,4,5,6-tetrahydropyridazine-3-carboxamide] were above 45000 nM and 12600 nM.
For `CC(=O)c1ccc(C(=O)Nc2ccc(Cc3ccc(F)c(F)c3)cn2)nc1` [Compound 507] the same measures were 980 nM and 1200 nM.
For `CN1N=C(C(=O)N(C)c2ncc(Cc3cccc(F)c3)s2)CCC1=O` [Compound 221] the same measures were above 45000 nM and above 45000 nM.
Regarding `COC(C)(c1cccc(F)c1)c1cnc(NC(=O)C2=NN(C)C(=O)CC2)s1` (stereo not drawn) [Compound 424], the concentration for half-maximal inhibition (IC50) at human SCD1 (setting [1]) and on human SCD5 (setting [2]) was above 45000 nM each time.
As for `Cn1cc(C(=O)Nc2ccc(Cc3cc(F)cc(F)c3)cn2)n(C)c1=O` [Compound 644], the IC50 came out at 42 nM on human SCD1 (setting [1]) and 10 nM at human SCD5 (setting [2]).
For `Cn1cccc(C(=O)Nc2ccc(Cc3cccc(F)c3)cn2)c1=O` [Compound 140, N-(5-(3-fluorobenzyl)pyridin-2-yl)-1-methyl-2-oxo-1,2-dihydropyridine-3-carboxamide], the IC50 is 290 nM at human SCD1 (setting [1]) and 10 nM at human SCD5 (setting [2]).
For `Cn1cc(C(=O)Nc2ccc(Cc3ccc(F)c(F)c3Cl)cn2)ccc1=O` [Compound 572] the same measures were 17 nM and 10 nM.
As to `CCn1cc(C(=O)Nc2ccc(Oc3ccc(F)c(Cl)c3)cn2)ccc1=O` [Compound 169, N-[5-(3-chloro-4-fluorophenoxy)pyridin-2-yl]-1-ethyl-6-oxo-1,6-dihydropyridine-3-carboxamide], the 50% inhibitory concentration (IC50) on human SCD1 (setting [1]) is above 45000 nM; at human SCD5 (setting [2]), 2480 nM.
For `Cn1nc(C(=O)Nc2ccc(COc3cc(Cl)cc(C#N)c3)cn2)ccc1=O` [Compound 671] the same measures were above 45000 nM and 2000 nM.
Consider `CN1C(=O)CCC1C(=O)Nc1ncc(Cc2cccc(F)c2)s1` (stereo not drawn) [Compound 400], for which the half-maximal inhibitory concentration (IC50) on human SCD1 (setting [1]) and on human SCD5 (setting [2]) was above 45000 nM throughout.
In the case of `CNC(=O)c1ccnc(NC(=O)c2ccc(Oc3ccccc3Cl)cn2)c1` [Compound 678], the IC50 was 320 nM at human SCD1 (setting [1]) and 380 nM on human SCD5 (setting [2]).
For `CC(O)c1ccc(C(=O)Nc2ccc(Cc3cccc(F)c3)cn2)cn1` (stereo not drawn) [Compound 529] the same measures were 1100 nM and 670 nM.
Taken in the same sequence, the figures for `Cn1cc(C(=O)N2CCC(Oc3cccc(Cl)c3)CC2)ccc1=O` [Compound 464] were above 45000 nM and above 45000 nM.
With `CC(C)n1nc(C(=O)Nc2ccc(Cc3cccc(F)c3)cn2)ccc1=O` [Compound 72, N-(5-(3-fluorobenzyl)pyridin-2-yl)-1-isopropyl-6-oxo-1,6-dihydropyridazine-3-carboxamide], the half-maximal inhibitory concentration (IC50) against human SCD1 (SCD1 IC50) was 4700 nM; against human SCD5 (SCD5 IC50), 390 nM.
`Cn1cc(C(=O)Nc2ccc(Cc3cc(F)cc(F)c3)cn2)cn1` [Compound 315]: the concentration for half-maximal inhibition (IC50) at human SCD1 (setting [1]) and at human SCD5 (setting [2]) was 10 nM in each case.
On to `O=C(Nc1ccc(Cc2cccc(Cl)c2)cn1)c1ccc(CO)cn1` [Compound 137, N-(5-(3-chlorobenzyl)pyridin-2-yl)-5-(hydroxymethyl)picolinamide], for which the IC50 against human SCD1 (SCD1 IC50) and at human SCD5 (SCD5 IC50) was 10 nM each time.
As for `N#Cc1cncc(C(=O)Nc2ccc(Cc3cccc(F)c3)cn2)c1` [Compound 579], the values for the IC50 at human SCD1 (setting [1]) and at human SCD5 (setting [2]) were above 45000 nM and 740 nM, respectively.
Taken in the same sequence, the figures for `CS(=O)(=O)c1ccc(C(=O)Nc2ccc(Cc3cccc(F)c3)cn2)cc1` [Compound 423] were above 45000 nM and above 45000 nM.
Taken in the same sequence, the figures for `C=C(c1ccc(C(=O)Nc2ccc(Cc3cccc(Cl)c3)cn2)cn1)C(F)(F)F` [Compound 499] were 10000 nM and 820 nM.
Taken in the same sequence, the figures for `Cn1nc(C(=O)Nc2nnc(Cc3cc(F)cc(Cl)c3)s2)ccc1=O` [Compound 346] were 340 nM and 550 nM.
As for `O=C(Nc1ccc(Cc2cccc(F)c2)cn1)c1ccnnc1` [Compound 143, N-(5-(3-fluorobenzyl)pyridin-2-yl)pyridazine-4-carboxamide], the IC50 on human SCD1 (setting [1]) was found to be 510 nM; on human SCD5 (setting [2]) it was 370 nM.
Taken in the same sequence, the figures for `Cn1nc(C(=O)Nc2ccc(Cc3cccc(Cl)c3)nn2)ccc1=O` [Compound 196, N-(6-(3-chlorobenzyl)pyridazin-3-yl)-1-methyl-6-oxo-1,6-dihydropyridazine-3-carboxamide] were 5580 nM and 1560 nM.
For `Cn1cc(C(=O)Nc2ccc(Cc3cc(F)c(F)c(Cl)c3)cn2)ccc1=O` [Compound 543] the same measures were 37 nM and 10 nM.
For `CCn1nc(C(=O)Nc2ccc(Cc3cccc(Cl)c3)cn2)cc1O` [Compound 489] the same measures were above 45000 nM and 544 nM.
With `CN1N=C(C(=O)Nc2ccc(Cc3cccc(Cl)c3)cc2)CCC1=O` [Compound 2, N-(4-(3-chlorobenzyl)phenyl)-1-methyl-6-oxo-1,4,5,6-tetrahydropyridazine-3-carboxamide], the concentration for half-maximal inhibition (IC50) is above 45000 nM at human SCD1 (setting [1]) and 2650 nM at human SCD5 (setting [2]).
Taken in the same sequence, the figures for `N#Cc1nc(C(=O)Nc2ccc(Cc3cc(F)cc(F)c3)cn2)co1` [Compound 683] were 8100 nM and 3900 nM.
As for `O=C(Nc1ccc(Cc2cccc(F)c2)cn1)c1ccc(=O)n(C2CC2)c1` [Compound 258], the IC50 is 3860 nM on human SCD1 (setting [1]) and 180 nM on human SCD5 (setting [2]).
With `CC(O)C1CN(C(=O)Nc2ccc(Cc3cccc(Cl)c3)cn2)C1` (stereo not drawn) [Compound 472], the IC50 on human SCD1 (setting [1]) and at human SCD5 (setting [2]) was above 45000 nM each time.
For the compound `O=C(Nc1ccc(Cc2cccc(F)c2)cn1)c1cc(CO)ccn1` [Compound 497], the concentration for half-maximal inhibition (IC50) on human SCD1 (setting [1]) and at human SCD5 (setting [2]) was 10 nM each time.
`Cn1cc(C(=O)Nc2ccc(Cc3cc(F)c(F)c(F)c3)cn2)ccc1=O` [Compound 56, 1-methyl-6-oxo-N-(5-(3,4,5-trifluorobenzyl)pyridin-2-yl)-1,6-dihydropyridine-3-carboxamide]: the IC50 against human SCD1 (SCD1 IC50) is 20 nM; on human SCD5 (SCD5 IC50), 10 nM.
Take `CN1N=C(C(=O)Nc2ccc(Cc3ccc(C4CC4)nc3)cn2)CCC1=O` [Compound 392]: the IC50 on human SCD1 (setting [1]) and on human SCD5 (setting [2]) was above 45000 nM each time.
In the case of `Cc1cc(C(=O)Nc2ccc(Cc3cc(F)cc(C#N)c3)cn2)cnc1C#N` [Compound 663], the half-inhibitory concentration (IC50) is above 45000 nM at human SCD1 (setting [1]) and 39 nM at human SCD5 (setting [2]).
With `Cn1cc(C(=O)Nc2ccc(Cc3ccc(F)cc3F)cn2)ccc1=O` [Compound 538], the half-maximal inhibitory concentration (IC50) stood at 1600 nM at human SCD1 (setting [1]) and 180 nM on human SCD5 (setting [2]).
Taken in the same sequence, the figures for `CC(O)c1cnc(C(=O)Nc2ccc(Cc3ccc(F)c(F)c3)cn2)nc1` (stereo not drawn) [Compound 604] were 37 nM and 42 nM.
For `Cc1cc(C(=O)Nc2ccc(Cc3cc(F)cc(C#N)c3)cn2)nn(C)c1=O` [Compound 609] the same measures were above 45000 nM and 284 nM.
Taken in the same sequence, the figures for `CN1N=C(NC(=O)c2ccc(Cc3cccc(C(F)F)c3)cn2)CCC1=O` [Compound 294] were above 45000 nM and 300 nM.
For the compound `CCn1cc(C(=O)Nc2ccc(Cc3ccc(F)cc3)nn2)ccc1=O` [Compound 379], the IC50 at human SCD1 (setting [1]) and on human SCD5 (setting [2]) was above 45000 nM throughout.
`CN1N=C(NC(=O)c2ccc(Cc3cccc(F)c3)cn2)CCC1=O` [Compound 90, 5-(3-Fluorobenzyl)-N-(1-methyl-6-oxo-1,4,5,6-tetrahydropyridazin-3-yl)picolinamide]: the IC50 at human SCD1 (setting [1]) amounted to 18000 nM; on human SCD5 (setting [2]) it was 620 nM.
For `CN1N=C(C(=O)Nc2nc(Cc3ccc4ccccc4n3)cs2)CCC1=O` [Compound 422] the same measures were above 45000 nM and above 45000 nM.
For `Cn1nc(NC(=O)c2ccc(Cc3cccc(Cl)c3)cn2)ccc1=O` [Compound 89, 5-(3-Chlorobenzyl)-N-(1-methyl-6-oxo-1,6-dihydropyridazin-3-yl)picolinamide] the same measures were 110 nM and 10 nM.
Taken in the same sequence, the figures for `COCc1ncc(C(=O)Nc2ccc(Cc3cccc(Cl)c3)cn2)cn1` [Compound 479] were 12000 nM and 680 nM.
